Experimental data reported in ChEMBL document CHEMBL3763049, “Discovery of aminoquinazoline derivatives as human A(2A) adenosine receptor antagonists” (Bioorg Med Chem Lett, 2016).
Values after ≈ are worked out from the molar mass of the structure shown.

How the values were obtained:
[1] = biological target: Adenosine receptor A2a (Rattus norvegicus, UniProt P30543); experiment: Binding affinity to rat A2A adenosine receptor
[2] = biological target: T1, Adenosine receptor A1 (Homo sapiens, UniProt P30542); experiment: Displacement of [3H]DPCPX from human adenosine A1 receptor expressed in CHO cell membranes after 60 mins by microplate scintillation counting analysis
T1 sequence (P30542 whole entry): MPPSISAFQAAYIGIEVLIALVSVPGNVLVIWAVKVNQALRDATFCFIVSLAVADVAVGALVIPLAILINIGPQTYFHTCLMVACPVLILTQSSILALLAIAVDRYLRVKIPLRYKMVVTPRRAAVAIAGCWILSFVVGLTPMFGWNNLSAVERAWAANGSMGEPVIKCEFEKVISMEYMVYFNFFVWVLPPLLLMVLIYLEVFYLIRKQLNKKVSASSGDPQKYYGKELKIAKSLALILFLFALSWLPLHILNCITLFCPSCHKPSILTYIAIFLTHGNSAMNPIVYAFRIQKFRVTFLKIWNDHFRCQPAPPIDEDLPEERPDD

[3] = system: Rattus norvegicus; experiment: Anti-cataleptic activity in Sprague-Dawley rat assessed as inhibition of haloperidol-induced catalepsy at 30 mg/kg, po administered for 1 hr; format: functional
[4] = biological target: Adenosine receptor A2a (Homo sapiens, UniProt P29274); experiment: Displacement of [3H]SCH-58261 from human adenosine A2A receptor expressed in HEK cell membranes after 60 mins by microplate scintillation counting analysis; design: species or system HEK293
[5] = AUC in haloperidol-induced Sprague-Dawley rat cataleptic model at 10 mg/kg, po administered for 1 hr; format: ADME, organism-based; conditions: in vivo
[6] = system: Rattus norvegicus; experiment: Anti-cataleptic activity in Sprague-Dawley rat assessed as inhibition of haloperidol-induced catalepsy at 10 mg/kg, po administered for 1 hr; format: functional
[7] = AUC in haloperidol-induced Sprague-Dawley rat cataleptic model at 30 mg/kg, po administered for 1 hr; format: ADME, organism-based; conditions: in vivo
[8] = biological target: T2, Cytochrome P450 3A4 (Homo sapiens, UniProt P08684); experiment: Time dependent inhibition of CYP3A4 (unknown origin); format: ADME
[9] = system: Rattus norvegicus; experiment: Anti-cataleptic activity in Sprague-Dawley rat assessed as inhibition of haloperidol-induced catalepsy at 1 mg/kg, po administered for 1 hr; format: functional
[10] = Solubility of compound at pH 7; format: physicochemical; conditions: buffer
[11] = Plasma protein binding in human; format: ADME, cell-free; conditions: read-out: PPB (converted)
[12] = Plasma concentration in haloperidol-induced Sprague-Dawley rat cataleptic model after 1 hr; format: ADME
[13] = biological target: T3, Adenosine receptor A3 (Homo sapiens, UniProt P0DMS8); experiment: Binding affinity to human adenosine A3 receptor
T3 sequence (P0DMS8 whole entry): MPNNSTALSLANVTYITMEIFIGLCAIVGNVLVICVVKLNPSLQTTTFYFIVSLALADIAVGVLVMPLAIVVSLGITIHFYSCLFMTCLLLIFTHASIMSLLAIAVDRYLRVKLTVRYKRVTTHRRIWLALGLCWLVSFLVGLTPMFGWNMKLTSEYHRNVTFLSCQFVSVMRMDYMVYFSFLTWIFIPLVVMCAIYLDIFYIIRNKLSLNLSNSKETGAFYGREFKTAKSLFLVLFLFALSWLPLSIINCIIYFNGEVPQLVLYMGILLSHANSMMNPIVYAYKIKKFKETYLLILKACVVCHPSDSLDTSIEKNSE

[14] = biological target: T2, Cytochrome P450 3A4; experiment: Time dependent inhibition of CYP3A4 (unknown origin) at 30 uM relative to control; format: ADME
[15] = Permeability of the compound; format: ADME; conditions: not told; read-out: permeability
[16] = Plasma protein binding in rat; format: ADME, cell-free; conditions: read-out: PPB (converted)
[17] = Drug uptake in brain of haloperidol-induced Sprague-Dawley rat cataleptic model after 1 hr; format: ADME, tissue-based; conditions: read-out: Drug uptake
[18] = biological target: T4, Adenosine receptor A2b (Homo sapiens, UniProt P29275); experiment: Binding affinity to human adenosine A2B receptor
T4 sequence (P29275 whole entry): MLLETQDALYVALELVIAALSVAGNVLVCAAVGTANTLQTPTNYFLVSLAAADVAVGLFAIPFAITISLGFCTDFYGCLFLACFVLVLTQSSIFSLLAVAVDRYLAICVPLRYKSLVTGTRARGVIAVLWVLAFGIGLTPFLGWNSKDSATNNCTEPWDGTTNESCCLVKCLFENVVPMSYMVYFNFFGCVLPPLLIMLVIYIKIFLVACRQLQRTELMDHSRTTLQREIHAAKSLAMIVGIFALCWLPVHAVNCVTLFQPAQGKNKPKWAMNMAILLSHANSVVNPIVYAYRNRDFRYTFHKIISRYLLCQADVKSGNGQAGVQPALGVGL

[19] = Half life in haloperidol-induced Sprague-Dawley rat cataleptic model at 1 to 30 mg/kg, po administered for 1 to 4 hrs; format: ADME, organism-based; conditions: in vivo
[20] = Clearance in human hepatocytes assessed per million cells; format: ADME, cell-based, Hepatocyte; conditions: read-out: CLH
[21] = Clearance in rat hepatocytes assessed per million cells; format: ADME, cell-based, Hepatocyte; conditions: read-out: CLH

Adenosine receptor A2a (Rattus norvegicus, UniProt P30543), sequence (P30543 whole entry): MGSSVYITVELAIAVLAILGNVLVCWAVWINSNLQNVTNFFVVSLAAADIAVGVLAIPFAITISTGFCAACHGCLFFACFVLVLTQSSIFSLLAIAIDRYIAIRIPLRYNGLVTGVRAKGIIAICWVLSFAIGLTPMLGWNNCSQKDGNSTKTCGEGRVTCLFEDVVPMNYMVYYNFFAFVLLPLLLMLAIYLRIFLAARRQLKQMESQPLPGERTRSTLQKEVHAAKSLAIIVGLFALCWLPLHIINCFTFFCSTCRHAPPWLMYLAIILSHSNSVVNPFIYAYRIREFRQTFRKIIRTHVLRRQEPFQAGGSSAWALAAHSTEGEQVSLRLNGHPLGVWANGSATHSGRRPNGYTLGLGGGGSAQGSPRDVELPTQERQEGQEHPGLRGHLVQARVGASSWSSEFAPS
Adenosine receptor A2a (Homo sapiens, UniProt P29274), sequence (P29274 whole entry): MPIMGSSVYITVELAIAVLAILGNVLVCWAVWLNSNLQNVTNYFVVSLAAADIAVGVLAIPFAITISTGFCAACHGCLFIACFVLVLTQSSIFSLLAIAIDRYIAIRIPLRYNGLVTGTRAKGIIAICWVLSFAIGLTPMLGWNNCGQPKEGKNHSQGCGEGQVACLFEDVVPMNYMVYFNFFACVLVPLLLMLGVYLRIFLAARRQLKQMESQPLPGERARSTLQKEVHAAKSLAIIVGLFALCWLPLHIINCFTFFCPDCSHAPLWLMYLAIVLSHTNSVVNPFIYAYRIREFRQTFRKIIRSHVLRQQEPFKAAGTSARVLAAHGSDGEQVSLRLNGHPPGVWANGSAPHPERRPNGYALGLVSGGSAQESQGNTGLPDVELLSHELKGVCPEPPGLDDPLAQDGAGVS
T2 sequence (P08684 whole entry): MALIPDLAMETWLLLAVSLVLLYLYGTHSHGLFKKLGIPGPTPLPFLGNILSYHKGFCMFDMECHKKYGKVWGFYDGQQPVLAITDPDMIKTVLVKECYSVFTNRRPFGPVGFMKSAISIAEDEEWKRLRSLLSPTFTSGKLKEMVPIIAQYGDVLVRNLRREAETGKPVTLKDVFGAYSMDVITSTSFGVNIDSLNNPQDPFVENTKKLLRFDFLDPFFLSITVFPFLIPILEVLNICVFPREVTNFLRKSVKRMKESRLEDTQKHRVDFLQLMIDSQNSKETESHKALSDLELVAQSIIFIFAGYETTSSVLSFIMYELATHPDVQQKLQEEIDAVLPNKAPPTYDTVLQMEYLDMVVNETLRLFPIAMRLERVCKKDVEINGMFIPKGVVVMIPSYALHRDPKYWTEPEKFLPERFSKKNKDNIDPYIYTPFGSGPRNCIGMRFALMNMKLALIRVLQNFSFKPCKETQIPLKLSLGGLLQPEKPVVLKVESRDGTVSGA

SMILES	Ki [2]	Ki [4]	also measured
Nc1nc(C(=O)NCc2cccc3cccnc23)c2cccc(C(F)(F)F)c2n1	1.3 µM	–	Ki ([1]; read-out: Ki): 0.057 µM; inhibition in vivo at 30 mg/kg [3]: 0%
Nc1nc(C(=O)NCCc2ccccn2)c2cccc(F)c2n1	0.6 µM	0.014 µM	–
Nc1nc(C(=O)NCc2cccc3c2OCCN3)c2cccc(F)c2n1	0.135 µM	0.0215 µM	–
N#Cc1cccc2c(C(=O)NCc3cccc4cccnc34)nc(N)nc12	0.337 µM	0.024 µM	–
CCCCOc1ccnc2c(CNC(=O)c3nc(N)nc4c(F)cccc34)cccc12	0.748 µM	0.245 µM	Ki [1]: Not Active
C[C@H](NC(=O)c1nc(N)nc2c(F)cccc12)c1cccc2cccnc12	0.524 µM	0.126 µM	–
CSc1cccc2c(C(=O)NCc3cccc4cccnc34)nc(N)nc12	0.132 µM	–	Ki ([1]; read-out: Ki): 0.012 µM; inhibition in vivo at 30 mg/kg [3]: 0%; AUC at 1 h [7]: 8900 nM·h
Nc1nc(C(=O)NCc2cccc3c(C(=O)N4CCN(c5ccccc5)CC4)ccnc23)c2cccc(F)c2n1	6 µM	1.54 µM	–
CN(CCCc1ccccn1)C(=O)c1cnc2c(CNC(=O)c3nc(N)nc4c(F)cccc34)cccc2c1	0.21 µM	0.012 µM	–
Nc1nc(C(=O)NCc2cccc3cc(C(=O)N4CCCc5ccccc54)cnc23)c2cccc(F)c2n1	0.16 µM	0.0044 µM	–
CS(=O)(=O)c1cccc2c(C(=O)NCc3cccc4cccnc34)nc(N)nc12	4.74 µM	–	Ki ([1]; read-out: Ki): 0.302 µM
Nc1nc(C(=O)NCCc2ccccc2)c2cccc(F)c2n1	0.559 µM	0.16 µM	–
Nc1nc(C(=O)NCc2cccc3[nH]cnc23)c2cccc(F)c2n1	0.281 µM	0.025 µM	–
Nc1nc(C(=O)NCc2cccc3cccnc23)c2cccc(Cl)c2n1	0.213 µM	–	Ki ([1]; read-out: Ki): 0.0029 µM; inhibition in vivo at 30 mg/kg [3]: 35%
Nc1nc(C(=O)NCc2cccc3cccnc23)c2cc(F)ccc2n1	0.346 µM	0.0044 µM	Ki ([1]; read-out: Ki): 0.0087 µM; AUC at 1 h [5]: 800 nM·h; inhibition in vivo at 10 mg/kg [6]: 55%
Nc1nc(C(=O)NCc2cccc3c2NCCC3)c2cccc(F)c2n1	0.213 µM	0.0076 µM	–
Cn1nccc1-c1cccc2c(C(=O)NCc3cccc4cccnc34)nc(N)nc12	6.04 µM	1.03 µM	–
CCOc1ccnc2c(CNC(=O)c3nc(N)nc4c(F)cccc34)cccc12	0.252 µM	0.0732 µM	–
Nc1nc(C(=O)NCc2cccc3cccnc23)c2cccc(-c3cncnc3)c2n1	6.3 µM	0.16 µM	–
Nc1cc(C(=O)NCc2cccc3cccnc23)c2ccccc2n1	17.6 µM	0.836 µM	solubility [10]: 19 µM (≈ 6.24 µg/mL)
Nc1nc(C(=O)NCc2ccnc3ccccc23)c2cccc(F)c2n1	10 µM	0.927 µM	–
Nc1nc(C(=O)NCc2cccc3cc(C(=O)NCCCCCc4ccccc4)cnc23)c2cccc(F)c2n1	0.16 µM	0.0069 µM	–
Nc1nc(C(=O)NCC2CCCCC2)c2cccc(F)c2n1	0.17 µM	0.045 µM	–

These reach a lower Ki [2]. Values come first.

Ki [2]	Ki [4]	SMILES	also measured
0.112 µM	0.0084 µM	Cc1cccc(CNC(=O)c2nc(N)nc3c(F)cccc23)c1	–
0.069 µM	0.0152 µM	COc1ccnc2c(CNC(=O)c3nc(N)nc4c(F)cccc34)cccc12	Ki ([1]; read-out: Ki): 0.0013 µM
0.11 µM	0.0027 µM	Nc1nc(C(=O)NCc2cccc3cc(C(=O)N4CCN(c5ccccn5)CC4)cnc23)c2cccc(F)c2n1	Ki ([1]; read-out: Ki): 0.0125 µM
0.031 µM	0.0003 µM	Nc1nc(C(=O)NCc2cccc3cccnc23)c2ccc(F)cc2n1	Ki ([1]; read-out: Ki): 0.0048 µM; AUC at 1 h [5]: 2300 nM·h; inhibition in vivo at 10 mg/kg [6]: 39%
0.057 µM	–	C[C@@H](NC(=O)c1nc(N)nc2c(F)cccc12)c1cccc2cccnc12	–
0.01 µM	–	Nc1nc(C(=O)NCc2cccc3cccnc23)c2cccc(Br)c2n1	–
0.103 µM	0.02 µM	Nc1nc(C(=O)NCc2cccc3c2OCCO3)c2cccc(F)c2n1	–
0.033 µM	0.0031 µM	Nc1nc(C(=O)NCc2cccc3cccnc23)c2cccc(I)c2n1	AUC at 1 h [5]: 1300 nM·h; inhibition in vivo at 10 mg/kg [6]: 23%
0.078 µM	0.0267 µM	Nc1nc(C(=O)NCc2cncc3ccccc23)c2cccc(F)c2n1	–
0.012 µM	0.0005 µM	Nc1nc(C(=O)NCc2cccc3cccnc23)c2cccc(F)c2n1	TDI [8]: Not Active; Ki ([1]; read-out: Ki): 0.0013 µM; AUC at 1 h [5]: 2400 nM·h; inhibition in vivo at 1 mg/kg [9]: 30%; inhibition in vivo at 10 mg/kg [6]: 74%
0.04 µM	0.0036 µM	Nc1nc(C(=O)NCc2cccc3cccnc23)c2cc(F)c(F)cc2n1	–
0.05 µM	0.0066 µM	Nc1nc(C(=O)NCc2cccc3cccnc23)c2cc(Cl)cc(Cl)c2n1	–
0.078 µM	0.015 µM	Nc1nc(C(=O)NCc2ccc3ccccc3n2)c2cccc(F)c2n1	–
0.12 µM	0.0048 µM	COCCOc1ccc(N2CCN(C(=O)c3cnc4c(CNC(=O)c5nc(N)nc6c(F)cccc56)cccc4c3)CC2)cc1	Ki ([1]; read-out: Ki): 0.0114 µM
0.083 µM	0.0054 µM	Nc1nc(C(=O)NCc2ccccc2)c2cccc(F)c2n1	–
0.024 µM	0.0031 µM	CCn1cnc2c(CNC(=O)c3nc(N)nc4c(F)cccc34)cccc21	–
0.116 µM	0.0136 µM	Cc1ccccc1CNC(=O)c1nc(N)nc2c(F)cccc12	–
0.054 µM	0.0082 µM	Nc1nc(C(=O)NCc2cccc3cc[nH]c23)c2cccc(F)c2n1	–
0.0054 µM	0.0018 µM	Nc1nc(C(=O)NCc2cccc3c2C(=O)NC3)c2cccc(F)c2n1	–
0.084 µM	0.0067 µM	Nc1nc(C(=O)NCc2nccc3ccccc23)c2cccc(F)c2n1	–
0.02 µM	–	Nc1nc(C(=O)NCc2cccc3cccnc23)c2cccc(OC(F)(F)F)c2n1	Ki ([1]; read-out: Ki): 0.0029 µM; inhibition in vivo at 30 mg/kg [3]: 0%
0.09 µM	0.0101 µM	Nc1nc(C(=O)NCc2cccc3ccccc23)c2cccc(F)c2n1	–
0.006 µM	–	COc1cccc2c(C(=O)NCc3cccc4cccnc34)nc(N)nc12	Ki ([1]; read-out: Ki): 0.0006 µM; inhibition in vivo at 30 mg/kg [3]: 31%; AUC at 1 h [7]: 800 nM·h
0.09 µM	0.0011 µM	Nc1nc(C(=O)NCc2cccc3cccnc23)c2ccccc2n1	fraction unbound [11]: 0.036; concentration at 1 h [12]: 4.2 µM; Ki [13]: 0.985 µM; fold change (FC) [14]: 3; Ki ([1]; read-out: Ki): 0.011 µM; AUC at 1 h [5]: 1600 nM·h; solubility [10]: 124 µM (≈ 40.8 µg/mL); Papp [15]: 400 nm/s; fraction unbound [16]: 0.045; concentration at 1 h [17]: 3.1 µM; Ki [18]: 1.47 µM; half-life [19]: 30 min; inhibition in vivo at 30 mg/kg [3]: 61%; hepatocyte CLint [20]: 34.8 µL/min/1e6 cells; hepatocyte CLint [21]: 12.8 µL/min/1e6 cells; inhibition in vivo at 10 mg/kg [6]: 35%
